Test results published in patent US20230414775A1, “TUBULYSINS AND PROTEIN-TUBULYSIN CONJUGATES” (priority 2021, published 2023).
Where two headings read alike, the source gives them in different places.

Legend:
SK-BR-3 cells = assay: SK-BR-3 anti-proliferation assay for payloads (CellTiter-Glo); assay type: cell-based; settings: Homo sapiens, free payload, 120-144 h, read-out: SKBR3
Method: The cell line used in the anti-proliferation assays was SK-BR-3, a human breast, adenocarcinoma (pleural effusion) cell line. The cells were grown in McCoy's 5a Medium+10% FBS. To run the assay for payloads, the cells (40 μL, 700 cells) were added to each well in a 384-well plate and incubated for 24 hours at 37° C. with 5% CO2. Then the cells were treated with test compounds at various concentrations using HPD300, and then normalize the DMSO to 0.5%. The control wells contain cells and the medium but lack the test compounds. The plates were incubated for 120 h at 37° C. with 5% CO2. To run the assay for ADCs and some key payloads, the cells (80 μL, 1000 cells) were added to each well in a 96-well plate and incubated for twenty-four hours at 37° C. with 5% CO2. Next, the ADCs or payloads were diluted with Opti-Mem with 0.1% BSA. The cells were treated with test compounds or ADCs (20 μL) at various concentrations in appropriate cell culture medium (total volume, 0.1 mL). The final concentration of DMSO was adjusted to 0.2% and the Opti-Mem with 0.1% BSA was adjusted to 5%. The control wells contained cells and the medium but lacked the test compounds. The plates were incubated for 144 h at 37° C. with 5% CO2. CTG reagent was then added to the wells (25 μL/384-well or 100 μL/96-well). After the plates were shaken for 10 min and then incubated for 10 min at room temperature, paste the clear bottom with white back seal and record luminescence with Envision. The inhibition % was calculated according to the following equation: inhibition %=[1-(assay-blank)/(control-blank)]×100.

[1] = Plasma stability test of payloads (LC-MS/MS, half-life); assay type: in vitro ADME; settings: human plasma, 37° C., time points 0-24 h, read-out: Human plasma stability T1/2 (converted)
Method: Stock solutions were prepared at 10 mM in DMSO for the test compound. Aliquots of the stock solutions were diluted to 0.02 mM in 0.05 M sodium phosphate buffer containing 0.5% BSA as the dosing solution. Then 10 μL of the dosing solutions were dosed into 90 μL of pre-warmed plasma (37° C.) in singlet (n=1) in 96-well assay plates to reach a final test concentration of 2 μM. The plates were kept in a 37° C. water bath for the duration of the experiment. At each time point (0, 0.25, 1, 8, 24 h), 400 μL of acetonitrile (containing internal standard) was added into corresponding wells of the assay plates. After the final time point was quenched, the assay plates were shaken on a vibrator (IKA, MTS 2/4) for 10 min (600 rpm/min) and then centrifuged at 5594 g for 15 min (Thermo Multifuge×3R). Aliquots of the supernatant were taken and analyzed by LC-MS/MS. The peak area response ratio to internal standard (PARR) of the compounds at 0.25, 1, 8, and 24 h was compared to the PARR at time zero to determine the percent of test compound remaining at each time point. Half-lives (ti/2) were calculated using Excel software, fitting to a single-phase exponential decay equation.

HCT15 cells = assay: HCT15 anti-proliferation / cell killing assay (CellTiter-Glo), with or without verapamil; assay type: cell-based, human; settings: for IC50: Homo sapiens
Method: The cell line used in the anti-proliferation assays was HCT15, a human colon, colorectal carcinoma cell line. The HCT15 cells were grown in RPMI medium 1640+10% FBS. To run the assay, the cells (40 μL, 400 cells) were added to each well in a 384-well plate and incubated for twenty-four hours at 37° C. with 5% CO2. One hour before adding compounds, freshly dilute Verapamil to 0.2 mg/ml in ddH2O. Add 1 μL/well diluted Verapamil to Verapamil treatment wells and 1 μL/well ddH2O to the non-Verapamil treatment wells. Return plates to the incubator at 37° C. with 5% CO2. Then the cells were treated with test compounds at various concentrations using HPD300, and then normalize the DMSO to 0.5%. The control wells contained cells and the medium but lack the test compounds. The plates were incubated for 120 hours at 37° C. with 5% CO2. CTG reagent was then added to the wells (25 μL). After the plates were shaken for 10 min and then incubated for 10 min at room temperature, paste the clear bottom with white back seal and record luminescence with Envision. The inhibition % was calculated according to the following equation: inhibition %=[1−(assay-blank)/(control-blank)]×100.

[2] = HCT15 cells, no verapamil, 120 h (5 days), read-out: HCT-15
[3] = HCT-15, HCT15 cells pre-treated with verapamil, 120 h, read-out: HCT-15 with verapamil

Structure (SMILES) | IC50 (SK-BR-3 cells) [nM] | half-life at 2 μM [1] [h] | IC50 (HCT15 cells; [2]) [nM] | IC50 (HCT15 cells; [3]) [nM] | HCT-15 with verapamil (nM) (HCT15 cells; HCT15 cells pre-treated with verapamil, 120 h)
CCCCCCN(C(=O)[C@@H](NC(=O)[C@H]1CCCCN1CCO)[C@@H](C)CC)[C@H](C[C@@H](OC(C)=O)c1nc(C(=O)N[C@@H](Cc2ccc(N)cc2)CC(C)(C)C(=O)O)cs1)C(C)C [PA7, (4S)-4-({2-[(1R,3R)-1-(acetyloxy)-3-[(2S,3S)—N-hexyl-2-{[(2R)-1-(2-hydroxyethyl)piperidin-2-yl]formamido}-3-methylpentanamido]-4-methylpentyl]-1,3-thiazol-4-yl}formamido)-5-(4-aminophenyl)-2,2-dimethylpentanoic acid] | 0.038 | 65.9 | 0.122 | 0.037 | 
CCCCCCN(C(=O)[C@@H](NC(=O)[C@H]1CCCCN1C)[C@@H](C)CC)[C@H](C[C@@H](OC(C)=O)c1nc(C(=O)N[C@@H](Cc2ccc(NCCO)cc2)CC(C)(C)C(=O)O)cs1)C(C)C (racemic) [PA14, Rac-(R)-4-(2-((1S,3S)-1-acetoxy-3-((2R,3R)—N-hexyl-3-methyl-2-((S)-1-methylpiperidine-2-carboxamido)pentanamido)-4-methylpentyl)thiazole-4-carboxamido)-acid] | 0.158 | 71 | 0.618 | 0.147 | 
CCCCCCN(C(=O)[C@@H](NC(=O)[C@H]1CCCCN1C)[C@@H](C)CC)[C@H](C[C@@H](OCCCO)c1nc(C(=O)N[C@@H](Cc2ccc(N)c(F)c2)CC(C)(C)C(=O)O)cs1)C(C)C (mixture of isomers) [PA22, Rac-(R)-5-(4-amino-3-fluorophenyl)-4-(2-((1S,3S)-3-((2R,3R)—N-hexyl-3-methyl-2-((S)-1-methylpiperidine-2-carboxamido)pentanamido)-1-(3-hydroxypropoxy)-4-methylpentyl)thiazole-4-carboxamido)-2,2-dimethylpentanoic acid] | 0.044 | 63.5 | 0.532 |  | Not reach
CCCCCCN(C(=O)[C@@H](NC(=O)[C@H]1CCCCN1CCO)[C@@H](C)CC)[C@H](C[C@@H](OCC)c1nc(C(=O)N[C@@H](Cc2ccc(N)cc2)CC(C)(C)C(=O)O)cs1)C(C)C [PA13, (S)-5-(4-aminophenyl)-4-(2-((1R,3R)-1-ethoxy-3-((2S,3S)—N-hexyl-2-((R)-1-(2-hydroxyethyl)piperidine-2-carboxamido)-3-methylpentanamido)-4-methylpentyl)thiazole-4-carboxamido)-2,2-dimethylpentanoic acid] | 0.288 | 313 | 1.31 | 0.284 | 
CCCCCCN(C(=O)[C@@H](NC(=O)[C@@]1(C)CCCN1CCN)[C@@H](C)CC)[C@H](C[C@@H](OC(C)=O)c1nc(C(=O)N[C@@H](Cc2ccc(O)cc2)CC(C)(C)C(=O)O)cs1)C(C)C (mixture of isomers) [PA5, (S)-4-(2-((1RS,3RS)-1-acetoxy-3-((2SR,3SR)-2-((R)-1-(2-aminoethyl)-2-methylpyrrolidine-2-carboxamido)-N-hexyl-3-methylpentanamido)-4-methylpentyl)thiazole-4-carboxamido)-5-(4-hydroxyphenyl)-2,2-dimethylpentanoic acid] | 18.3 |  | > 100 | 15.9 | 
CCCCCCN(C(=O)[C@@H](NC(=O)[C@@]1(C)CCCN1)[C@@H](C)CC)[C@H](C[C@@H](OC(C)=O)c1nc(C(=O)N[C@@H](Cc2ccc(O)cc2)CC(C)(C)C(=O)O)cs1)C(C)C [Compound P22, reference compound] | 0.087 |  | 0.265 | 0.078 | 
CCCCCCN(C(=O)[C@@H](NC(=O)[C@H]1CCCCN1C)[C@@H](C)CC)[C@H](C[C@@H](OC(=O)NCCOCCOCCO)c1nc(C(=O)N[C@@H](Cc2ccc(N)c(F)c2)CC(C)(C)C(=O)O)cs1)C(C)C (mixture of isomers) [PA25, (S)-5-(4-amino-3-fluorophenyl)-4-(2-((3RS,6SR,8SR)-3-((RS)-sec-butyl)-5-hexyl-19-hydroxy-6-isopropyl-1-((R)-1-methylpiperidin-2-yl)-1,4,10-trioxo-9,14,17-trioxa-2,5,11-triazanonadecan-8-yl)thiazole-4-carboxamido)-2,2-dimethylpentanoic acid] | 1.6 |  | 0.477 | 0.158 | 
CCCCCCN(C(=O)[C@@H](NC(=O)[C@@]1(C)CCCN1CCO)[C@@H](C)CC)[C@H](C[C@@H](OC(C)=O)c1nc(C(=O)N[C@@H](Cc2ccc(N)cc2)CC(C)(C)C(=O)O)cs1)C(C)C [PA6, (4S)-4-({2-[(1R,3R)-1-(acetyloxy)-3-[(2S,3S)—N-hexyl-2-{[(2R)-1-(2-hydroxyethyl)-2-methylpyrrolidin-2-yl]formamido}-3-methylpentanamido]-4-methylpentyl]-1,3-thiazol-4-yl}formamido)-5-(4-aminophenyl)-2,2-dimethylpentanoic acid] | 0.514 |  | 3.27 | 0.62 | 
C#CCCCON(C(=O)[C@@H](NC(=O)[C@@]1(C)CCCN1CCO)[C@@H](C)CC)[C@H](C[C@@H](OC(C)=O)c1nc(C(=O)N[C@@H](Cc2ccc(N)cc2)CC(C)(C)C(=O)O)cs1)C(C)C [PA3, (4S)-4-({2-[(1R,3R)-1-(acetyloxy)-3-[(2S,3S)-2-{[(2R)-1-(2-hydroxyethyl)-2-methylpyrrolidin-2-yl]formamido}-3-methyl-N-(pent-4-yn-1-yloxy)pentanamido]-4-methylpentyl]-1,3-thiazol-4-yl}formamido)-5-(4-aminophenyl)-2,2-dimethylpentanoic acid] | 1.46 |  | 7.7 | 0.741 | 
CCCCCCN(C(=O)[C@@H](NC(=O)[C@H]1CCCCN1CCO)[C@@H](C)CC)[C@H](C[C@@H](OCC)c1nc(C(=O)N[C@@H](Cc2ccc(NC(=O)CN)cc2)CC(C)(C)C(=O)O)cs1)C(C)C [PA9, (S)-5-(4-(2-aminoacetamido)phenyl)-4-(2-((1R,3R)-1-ethoxy-3-((2S,3S)—N-hexyl-2-((R)-1-(2-hydroxyethyl)piperidine-2-carboxamido)-3-methylpentanamido)-4-methylpentyl)thiazole-4-carboxamido)-2,2-dimethylpentanoic acid] | 5.38 |  | 9.89 | 1.08 | 
CCCCCCN(C(=O)[C@@H](NC(=O)[C@H]1CCCCN1CCO)[C@@H](C)CC)[C@H](C[C@@H](OC(C)=O)c1nc(C(=O)N[C@@H](Cc2ccc(N)c(F)c2)CC(C)(C)C(=O)O)cs1)C(C)C [PA8, (4S)-4-({2-[(1R,3R)-1-(acetyloxy)-3-[(2S,3S)—N-hexyl-2-{[(2R)-1-(2-hydroxyethyl)piperidin-2-yl]formamido}-3-methylpentanamido]-4-methylpentyl]-1,3-thiazol-4-yl}formamido)-5-(4-amino-3-fluorophenyl)-2,2-dimethylpentanoic acid] | 0.017 |  | 0.072 | 0.029 | 
CCCCCCN(C(=O)[C@@H](NC(=O)[C@H]1CCCCN1C)[C@@H](C)CC)[C@H](C[C@@H](OC(C)=O)c1nc(C(=O)N[C@@H](Cc2ccc(N(CCO)C(=O)CN)cc2)CC(C)(C)C(=O)O)cs1)C(C)C (racemic) [PA19, Rac-(R)-4-(2-((1S,3S)-1-acetoxy-3-((2R,3R)—N-hexyl-3-methyl-2-((S)-1-methylpiperidine-2-carboxamido)pentanamido)-4-methylpentyl)thiazole-4-carboxamido)-acid] | 1.84 |  | 10.8 | 1.8 | 
